Measured values: patent US20170079966A1, “INHIBITION OF TUMOR CELL INTERACTIONS WITH THE MICROENVIRONMENT RESULTING IN A REDUCTION IN TUMOR GROWTH AND DISEASE PROGRESSION” (Deciphera Pharmaceuticals, LLC, priority 2014, published 2017)
Like-named read-outs stand apart in the source and are kept apart here.

Tests used:
[1] = tested on: SK-MEL-28 and SK-MEL-5 cells (pERK, pMET, AKT); assay: HGF-stimulated melanoma cell signal transduction assay; format: cell-based; conditions: 50 nM
Method: SK-MEL-5 and SK-MEL-28 cells were added to 12-well plates at 450,000 and 250,000 cells/well, respectively, and incubated overnight. […] Cells were then stimulated with 50 ng/mL HGF for 1 hr. Antibodies were obtained from Cell Signaling Technology.

[2] = tested on: SK-MEL-28 cells; assay: HGF-stimulated melanoma proliferation cell assay; format: cell-based; conditions: Homo sapiens, 72 h
Method: SK-MEL-28 cells were added to 96-well plates (2,500 cells/well). Effects on cell proliferation were assessed by incubation of SK-MEL-28 cells in complete media, media containing 50 ng/mL HGF, or media mixed 1:1 with MRC-5 fibroblast-conditioned media. Plates were incubated for 72 h.

[3] = tested on: PyMT mammary tumor; assay: PyMT syngeneic breast cancer model; format: in vivo, mice
Method: Female FVB/NJ mice were implanted in the 4th mammary fat pad with one million cells that had been dissociated from tumor fragments from MMTV-PyMT donor mice. […] Mice (n=10/group) were dosed for three weeks, then, primary tumor and lungs were collected and fixed. Lung sections were stained with H&E at Premier Laboratory. Lung metastases (≧10 cells) were counted manually via microscopy. Data were analyzed via one-way analysis of variance (ANOVA), with post-hoc analysis by the method of Holm-Sidak. For analysis of TIE2-positive macrophages, tumor sections were stained with TIE2 and CD31 antibodies at Premier Laboratory. The density of TIE2-positive cells at the stroma/tumor boundary in each tumor was scored using 0=no staining, 1=low, 2=medium, and 3=high.

[4] = tested on: U87-MG xenograft glioma; assay: Orthotopic U87-MG xenograft efficacy model (BLI); format: in vivo, mice; conditions: after two weeks of treatment; bevacizumab 5 mg/kg IP every three days; Compound 1 10 mg/kg BID
Method: Protocol for in vivo xenograft efficacy study. […] Treatments began on Day 31.
The tumor cells were injected intracerebroventricularly (ICV) and tumor growth was monitored in vivo by quantitation of luciferase-mediated BLI.

[5] = tested on: circulating TIE2+ and TIE2+/MET+ monocytes; assay: Flow cytometry of circulating TIE2/MET-expressing monocytes from U87-MG xenograft model; format: in vivo, mice; conditions: single agents; after five weeks of treatment
Method: Flow cytometry of circulating TIE2/MET-expressing monocytes from U87-MG xenograft model. Peripheral blood samples were fixed using Lyse/Fix buffer (BD Biosciences, San Jose, Calif.). BD Fc Block was added and cells were stained with CD11b-PECy7 and Gr1-APC antibodies (BD Pharmingen), and TIE2-PE and MET-FITC antibodies (eBioscience) or isotype controls. Data was collected on an Accuri C6 cytometer. Monocytes were gated using side and forward scatter.
To monitor these monocytes in the U87 survival model, peripheral monocytes were gated on CD11b+/Grl-surface markers and TIE2^+ and/or TIE2^+/MET^+ cells quantitated. In the U87 glioma survival study, we observed both of these TIE2^+ expressing monocyte populations in the circulation of vehicle-treated mice after five weeks of treatment. […] The lowered population of both of these TIE2^+ monocyte populations in the combination cohort was consistent with greater survival benefit (FIG. 6).

[6] = tested on: GSC17 glioblastoma cells; assay: GSC17 glioma stem cell patient-derived xenograft model (tumor volume, immunohistochemistry); format: in vivo, mice
Method: (§1) For the in vivo experiments, 4- to 6-week-old female nude mice that were strictly inbred at The University of Texas MD Anderson Cancer Center and maintained in the MD Anderson Veterinary in accordance with institutional guidelines were used. For the in vivo experiments, GSC11 (5×10^5) or GSC17 (5×10^4) glioblastoma cells were implanted intracranially into nude mice. […] Control mice for these cohorts were treated with phosphate-buffered saline by i.p. injection and/or with 0.4% HPMC vehicle by oral gavage. One cohort of 10 mice per group were treated continuously and followed for survival. A separate cohort of 9 mice per group were treated continuously until the designated time point, and the tumors from these mice were extracted at 3, 4, 5 weeks in GSC11 xenograft mice model and at 3.5, 4.5, 5.5 weeks in GSC17 xenograft mice model after the start of treatment.
(§2) When the mice treated for the designated time period developed signs and symptoms of advanced tumors, they were euthanized, and their brains were removed, fixed in 4% formaldehyde for 24 hours, and embedded in paraffin. The tissues were then sectioned serially (4 μm) and stained with hematoxylin and eosin (Sigma-Aldrich). Tumor formation and phenotype were determined by histologic analysis of the hematoxylin- and eosin-stained sections. The tumor volume, greatest longitudinal diameter (length), and greatest transverse diameter (width) were measured using an external caliper and Adobe Illustrator software. The tumor volumes were calculated by the following formula: volume=½(length×width^2).
(§3) For immunohistochemical analyses, the tissue sections were deparaffinized and subjected to graded rehydration. After blocking the tissue in 5% horse and goat serum and antigen retrieval solution (citrate buffer, pH 6.0), we incubated the tissue sections overnight at 4° C. with primary antibodies against Factor VIII (1:500; A0082, Dako) to assess microvessel formation, vimentin (1:100; M0725, Dako) to assess mesenchymal marker expression, F4/80 (1:50; 123102, BioLegend) to assess monocyte infiltration, nestin (1:300; Ab6142, Abcam) to assess glioma stem cell marker expression, HGF (1:200; LS-B4657, LSBio), and TIE2 (1:50; Santa Cruz Biotechnology) to assess TIE2-expressing monocyte infiltration. Texas red fluorescein isothiocyanate-conjugated secondary antibodies or anti-rat immunoglobulin G antibodies (Invitrogen) were used for 1 hour at room temperature.
(§4) All statistical analyses were conducted with the GraphPad 6 (InStat) software for Windows 7. Survival analysis was conducted using the Kaplan-Meier method, and differences in survival between treatment groups were assessed using the log-rank test. All other comparisons were performed using an unpaired two-tailed Student t-test. Summary statistics for continuous data are expressed as the mean±standard error of the mean. P values less than 0.05 were considered statistically significant. The nestin staining was assessed using the Image-Pro Plus system version 7.0 (Media Cybernetics) in ×10 fields of at least three tumor samples per group with three to four different sections per tumor sample.

[7] = tested on: GSC11 glioblastoma cells; assay: GSC11 glioma stem cell patient-derived xenograft model (tumor volume, immunohistochemistry); format: in vivo, mice
Method: as §1, §2, §3, §4

For `CC(C)(C)c1nc(-c2cccc(NS(=O)(=O)c3c(F)cccc3F)c2F)c(-c2ccnc(N)n2)s1` [dabrafenib], the “Phosphorylation of ERK upon HGF stimulation” value ([1]; 50 ng/mL HGF 1 hr) was “ERK remained fully phosphorylated”, the “Phosphorylation of ERK” value ([1]; no HGF) was “inhibited phosphorylation” and the IC50 ([2]; 50 ng/mL HGF or MRC-5 fibroblast-conditioned media, read-out: IC50, proliferation of SK-MEL-28 with HGF or fibroblast-conditioned media) was over 10 µM. The IC50 ([2]; complete media, read-out: IC50, proliferation of SK-MEL 28) was 0.0106 µM.

`CC(=O)O[C@H]1C(=O)[C@@]2(C)[C@H]([C@H](OC(=O)c3ccccc3)[C@]3(O)C[C@H](OC(=O)[C@H](O)[C@@H](NC(=O)c4ccccc4)c4ccccc4)C(C)=C1C3(C)C)[C@]1(OC(C)=O)CO[C@@H]1C[C@@H]2O` [paclitaxel, reference compound] was tested, and the “Tumor growth inhibition (TGI)” value ([3]; after dosing for three weeks, paclitaxel 10 mg/kg i.v. every 5 days, Compound 1 15 mg/kg twice daily) was 42%, the “Reduction of TIE2 score (stromal density of TIE2+ cells)” value ([3]; same dosing) was “did not reduce” and the “Reduction of lung metastases compared to controls” value ([3]; same dosing) was 64%.

For bevacizumab [reference compound], the “Decrease in BLI signal compared to vehicle” value [4] was 63%, the “Numbers of circulating TIE2+ and TIE2+/MET+ monocyte populations” value [5] was “did not alter” and the “Tumor volume at 3.5 weeks” value ([6]; GSC17, bevacizumab 10 mg/kg i.p. twice per week, Compound 1 10 mg/kg oral twice daily) was 0.4±0.4 mm^3. For the same molecule, the “Tumor volume at 4.5 weeks” value ([6]; GSC17, same dosing) was 0.05±0.03 mm^3, the “Tumor volume at 5.5 weeks” value ([6]; GSC17, same dosing) was 9.6±4.6 mm^3 and the “Factor VIII-positive area” value ([6]; GSC17 xenograft mouse model) was 3.0±0.3%. For the same molecule, the Nestin-positive area ([6]; GSC17 xenograft mouse model) was 20.6±2.7%, the “Mesenchymal tumor marker vimentin / EMT (immunohistochemistry)” value ([6]; GSC-17 glioma model) was “therapy-induced increase in EMT” and the “Tumor infiltration of TIE2-positive/F4/80-positive cells” value ([6]; GSC-17 glioma xenograft model) was “increased”. For the same molecule, the “Tumor volume at 3 weeks” value ([7]; GSC11, bevacizumab 10 mg/kg i.p. twice per week, Compound 1 10 mg/kg oral twice daily) was 14.3±6.9 mm^3, the “Tumor volume at 4 weeks” value ([7]; GSC11, same dosing) was 30.7±4.2 mm^3 and the “Tumor volume at 5 weeks” value ([7]; GSC11, same dosing) was 46.6±4.5 mm^3. The “Factor VIII-positive area” value ([7]; GSC11 model) was 3.3±1.1%, the Nestin-positive area ([7]; GSC11 xenograft mouse model) was 59.8±6.0% and the “Mesenchymal tumor marker vimentin / EMT (immunohistochemistry)” value ([7]; GSC-11 glioma model) was “therapy-induced increase in EMT”. The “Macrophage infiltration into tumor (F4/80 IHC staining)” value ([7]; GSC-11 glioma xenograft model) was “stimulating the influx of tumor-promoting macrophages”.
